Test results published in ChEMBL document CHEMBL1201862, “PubChem BioAssay data set” (2004).
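Five concentrations, 48 hours, 96-well plates. GI50: concentration for 50% inhibition of growth.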 Calls of active or inactive are those of the source. Rule as the data show it: active = GI50 up to about 1.1 µM and inactive = higher.

Tests used:
Test in all cases: NCI tumour cell line growth inhibition, 48 h
[1] = test system: 786-0
[2] = test system: A498
[3] = test system: A549
[4] = test system: ACHN
[5] = test system: BT-549
[6] = test system: CAKI-1
[7] = test system: CCRF-CEM
[8] = test system: COLO 205
[9] = test system: DU-145
[10] = test system: EKVX
[11] = test system: HCT-116
[12] = test system: HCT-15
[13] = test system: HL-60
[14] = test system: HOP-62
[15] = test system: HOP-92
[16] = test system: HT-29
[17] = test system: Hs-578T
[18] = test system: IGROV-1
[19] = test system: K562
[20] = test system: KM12
[21] = test system: LOX IMVI
[22] = test system: M14
[23] = test system: MCF7
[24] = test system: MDA-MB-231
[25] = test system: MDA-MB-435
[26] = test system: MDA-N
[27] = test system: MOLT-4
[28] = test system: Malme-3M
[29] = test system: NCI-H226
[30] = test system: NCI-H23
[31] = test system: NCI-H460
[32] = test system: NCI-H522
[33] = test system: NCI/ADR-RES
[34] = test system: OVCAR-3
[35] = test system: OVCAR-4
[36] = test system: OVCAR-5
[37] = test system: OVCAR-8
[38] = test system: PC-3
[39] = test system: RPMI-8226
[40] = test system: RXF 393
[41] = test system: SF-268
[42] = test system: SF-295
[43] = test system: SF-539
[44] = test system: SK-MEL-28
[45] = test system: SK-MEL-2
[46] = test system: SK-MEL-5
[47] = test system: SK-OV-3
[48] = test system: SN12C
[49] = test system: SNB-19
[50] = test system: SNB-75
[51] = test system: SR
[52] = test system: SW-620
[53] = test system: T47D
[54] = test system: TK-10
[55] = test system: U-251
[56] = test system: UACC-257
[57] = test system: UACC-62
[58] = test system: UO-31
[59] = test system: HCC 2998

For `c1ccc(C2=NN(c3nc4ccccc4s3)C3(CCCCC3)N2)nc1`, the GI50 [1] was 18.3 µM (inactive), the GI50 [2] was 32.2 µM (inactive) and the GI50 [3] was 27.4 µM (inactive). The GI50 [4] was 29.9 µM (inactive), the GI50 [5] was 20.5 µM (inactive) and the GI50 [6] was 29.4 µM (inactive). For the same compound, the GI50 [7] was 29 µM (inactive), the GI50 [8] was 19.3 µM (inactive) and the GI50 [9] was 35.7 µM (inactive). The GI50 [10] was 33.9 µM (inactive), the GI50 [11] was 26.4 µM (inactive) and the GI50 [12] was 32.8 µM. For the same compound, the GI50 [13] was 25.2 µM (inactive), the GI50 [14] was 28.9 µM (inactive) and the GI50 [15] was 31.7 µM (inactive). The GI50 [16] was 19.9 µM (inactive), the GI50 [17] was 31.7 µM (inactive) and the GI50 [18] was 19.7 µM (inactive). For the same compound, the GI50 [19] was 16.6 µM (inactive), the GI50 [20] was 22 µM (inactive) and the GI50 [21] was 20.1 µM (inactive). The GI50 [22] was 21.4 µM (inactive), the GI50 [23] was 21.6 µM (inactive) and the GI50 [24] was 21.6 µM (inactive). For the same compound, the GI50 [25] was 23.4 µM (inactive), the GI50 [26] was 24.9 µM (inactive) and the GI50 [27] was 4.01 µM (inactive). For the same compound, the GI50 [28] was 11.7 µM (inactive), the GI50 [29] was 19.4 µM (inactive) and the GI50 [30] was 24.9 µM (inactive). The GI50 [31] was 15.2 µM (inactive), the GI50 [32] was 26.5 µM (inactive) and the GI50 [33] was 19.7 µM (inactive). For the same compound, the GI50 [34] was 16.7 µM (inactive), the GI50 [35] was 24.8 µM (inactive) and the GI50 [36] was 43.5 µM (inactive). The GI50 [37] was 31.8 µM (inactive), the GI50 [38] was 15.8 µM (inactive) and the GI50 [39] was 16.1 µM (inactive). For the same compound, the GI50 [40] was 21.9 µM (inactive), the GI50 [41] was 59.2 µM (inactive) and the GI50 [42] was 27.8 µM (inactive). The GI50 [43] was 46.3 µM (inactive), the GI50 [44] was 44.3 µM (inactive) and the GI50 [45] was 18.4 µM (inactive). The GI50 [46] was 20.1 µM (inactive), the GI50 [47] was > 100 µM (inactive) and the GI50 [48] was 19.7 µM (inactive). For the same compound, the GI50 [49] was 40.2 µM (inactive), the GI50 [50] was 25.6 µM (inactive) and the GI50 [51] was 1.85 µM (inactive). The GI50 [52] was 30.7 µM (inactive), the GI50 [53] was 7.64 µM (inactive) and the GI50 [54] was 21.8 µM (inactive). For the same compound, the GI50 [55] was 20.4 µM (inactive), the GI50 [56] was 16.7 µM (inactive) and the GI50 [57] was 30.7 µM (inactive). For the same compound, the GI50 [58] was 35.1 µM (inactive).
`O=C1C[C@@H](C(=O)OCc2ccccc2)NC(=O)C[C@@H](C(=O)OCc2ccccc2)NC(=O)C[C@@H](C(=O)OCc2ccccc2)N1` was tested, and the GI50 [1] was 21 µM (inactive), the GI50 [2] was 27.5 µM (inactive) and the GI50 [3] was > 100 µM (inactive). The GI50 [4] was 23 µM (inactive), the GI50 [5] was > 100 µM (inactive) and the GI50 [6] was > 100 µM (inactive). For the same compound, the GI50 [7] was 0.0675 µM (active), the GI50 [8] was > 100 µM (inactive) and the GI50 [9] was > 100 µM (inactive). The GI50 [10] was > 100 µM (inactive), the GI50 [59] was > 95.9 µM (inactive) and the GI50 [11] was > 84.1 µM (inactive). For the same compound, the GI50 [12] was greater than 100 µM, the GI50 [13] was 0.659 µM (active) and the GI50 [14] was 33.9 µM (inactive). For the same compound, the GI50 [15] was 20.7 µM (inactive), the GI50 [16] was > 100 µM (inactive) and the GI50 [17] was 13.1 µM (inactive). The GI50 [18] was 98.6 µM (inactive), the GI50 [19] was 4.16 µM (inactive) and the GI50 [20] was > 100 µM (inactive). The GI50 [21] was > 100 µM (inactive), the GI50 [22] was > 92.9 µM (inactive) and the GI50 [23] was > 100 µM (inactive). For the same compound, the GI50 [24] was 14 µM (inactive), the GI50 [25] was > 100 µM (inactive) and the GI50 [26] was > 100 µM (inactive). For the same compound, the GI50 [27] was 4.15 µM (inactive), the GI50 [29] was > 100 µM (inactive) and the GI50 [30] was 47 µM (inactive). The GI50 [31] was > 100 µM (inactive), the GI50 [32] was 36.6 µM (inactive) and the GI50 [33] was > 100 µM (inactive). For the same compound, the GI50 [34] was > 100 µM (inactive), the GI50 [35] was > 100 µM (inactive) and the GI50 [36] was > 100 µM (inactive). For the same compound, the GI50 [37] was > 100 µM (inactive), the GI50 [38] was > 100 µM (inactive) and the GI50 [39] was 38.8 µM (inactive). The GI50 [40] was 13.3 µM (inactive), the GI50 [41] was 15.2 µM (inactive) and the GI50 [42] was 20 µM (inactive). For the same compound, the GI50 [43] was 18.5 µM (inactive), the GI50 [44] was > 100 µM (inactive) and the GI50 [45] was 13 µM (inactive). The GI50 [46] was > 100 µM (inactive), the GI50 [47] was 20.8 µM (inactive) and the GI50 [48] was > 100 µM (inactive). The GI50 [49] was 45.5 µM (inactive), the GI50 [50] was 1.06 µM (active) and the GI50 [51] was 4.06 µM (inactive). For the same compound, the GI50 [52] was > 100 µM (inactive), the GI50 [53] was > 100 µM (inactive) and the GI50 [54] was 19.6 µM (inactive). The GI50 [55] was 12.1 µM (inactive), the GI50 [56] was > 100 µM (inactive) and the GI50 [57] was 64.7 µM (inactive). For the same compound, the GI50 [58] was > 100 µM (inactive).
For `C/C(=N\NC(=S)NCc1ccccc1)c1nc2cccnc2[nH]1`, the GI50 [1] was 6.92 µM (inactive), the GI50 [2] was 17.3 µM (inactive) and the GI50 [3] was 6.38 µM (inactive). The GI50 [4] was 3.57 µM (inactive), the GI50 [5] was 6.12 µM (inactive) and the GI50 [6] was 6.52 µM (inactive). For the same compound, the GI50 [7] was 3.27 µM (inactive), the GI50 [8] was 14.5 µM (inactive) and the GI50 [9] was 4.84 µM (inactive). For the same compound, the GI50 [10] was 2.88 µM (inactive), the GI50 [59] was 20.1 µM (inactive) and the GI50 [11] was 3.69 µM (inactive). For the same compound, the GI50 [12] was 4.45 µM, the GI50 [13] was 3.71 µM (inactive) and the GI50 [14] was 6.85 µM (inactive). For the same compound, the GI50 [15] was 4.37 µM (inactive), the GI50 [16] was 3.48 µM (inactive) and the GI50 [17] was 18.3 µM (inactive). For the same compound, the GI50 [18] was 8 µM (inactive), the GI50 [19] was 5.35 µM (inactive) and the GI50 [20] was 6.34 µM (inactive). The GI50 [21] was 6.12 µM (inactive), the GI50 [22] was 6.01 µM (inactive) and the GI50 [23] was 3.53 µM (inactive). The GI50 [24] was 17.3 µM (inactive), the GI50 [25] was 12.4 µM (inactive) and the GI50 [26] was 11.3 µM (inactive). For the same compound, the GI50 [27] was 3.44 µM (inactive), the GI50 [28] was 13.4 µM (inactive) and the GI50 [29] was 4.44 µM (inactive). The GI50 [30] was 12.8 µM (inactive), the GI50 [31] was 4.29 µM (inactive) and the GI50 [32] was 15.1 µM (inactive). For the same compound, the GI50 [33] was 9.98 µM (inactive), the GI50 [34] was 11.1 µM (inactive) and the GI50 [35] was 16.4 µM (inactive). The GI50 [36] was 7.23 µM (inactive), the GI50 [37] was 10.1 µM (inactive) and the GI50 [38] was 8.95 µM (inactive). For the same compound, the GI50 [39] was 11.5 µM (inactive), the GI50 [41] was 4.62 µM (inactive) and the GI50 [42] was 6.41 µM (inactive). For the same compound, the GI50 [43] was 5.73 µM (inactive), the GI50 [44] was 14.6 µM (inactive) and the GI50 [45] was 13.1 µM (inactive). For the same compound, the GI50 [46] was 3.57 µM (inactive), the GI50 [47] was 10.4 µM (inactive) and the GI50 [48] was 15.7 µM (inactive). The GI50 [49] was 6.49 µM (inactive), the GI50 [50] was 20.2 µM (inactive) and the GI50 [51] was 4.62 µM (inactive). The GI50 [52] was 9.66 µM (inactive), the GI50 [53] was 9.1 µM (inactive) and the GI50 [54] was 15.2 µM (inactive). The GI50 [55] was 5.3 µM (inactive), the GI50 [56] was 9.62 µM (inactive) and the GI50 [57] was 6.53 µM (inactive). For the same compound, the GI50 [58] was 1.94 µM (inactive).
